Experimental data: PubChem BioAssay AID2060331 (Molecular Pharmacology Branch, DTP, NCI, 2025)
pIC50: −log10 of the molar value. Values joined by “and” are separate entries in the source; they are usually repeats but may differ in a detail not shown here. Equal values may be shown once.

Tested on: Hs578T multi-cell spheroids, viability
Assay: Anticancer human tumor Hs578T cell line growth inhibition [IpAb];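 further: drug exposure lasted 7 days before readout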
Conditions: for viability, T/C: stronger effect = lower value; active means viability on the fitted dose curve at most 10% of control; inactive means the rest
How it was run: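 Spheroids of 60% malignant cells, 25% HUVEC and 15% MSC were exposed to targeted agents combined with ipatasertib or abemaciclib. Doses started at or near clinical Cmax (10 microM when unknown) and fell in half-log steps.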

[1] = curve of first compound, second compound 0.1 µM
[2] = curve of first compound, second compound 0.316 µM
[3] = curve of first compound, second compound 1 µM
[4] = curve of first compound, second compound 3.16 µM
[5] = curve of first compound, second compound 10 µM
[6] = second compound 0.1 µM, first compound 0.0316 µM
[7] = second compound 0.1 µM, first compound 0.1 µM
[8] = second compound 0.316 µM, first compound 0.0316 µM
[9] = second compound 0.316 µM, first compound 0.1 µM
[10] = second compound 1 µM, first compound 0.0316 µM
[11] = second compound 1 µM, first compound 0.1 µM
[12] = second compound 3.16 µM, first compound 0.0316 µM
[13] = second compound 3.16 µM, first compound 0.1 µM
[14] = second compound 10 µM, first compound 0.0316 µM
[15] = second compound 10 µM, first compound 0.1 µM
[16] = second compound 0.1 µM, first compound 0.000316 µM
[17] = second compound 0.1 µM, first compound 0.001 µM
[18] = second compound 0.1 µM, first compound 0.00316 µM
[19] = second compound 0.1 µM, first compound 0.01 µM
[20] = second compound 0.316 µM, first compound 0.000316 µM
[21] = second compound 0.316 µM, first compound 0.001 µM
[22] = second compound 0.316 µM, first compound 0.00316 µM
[23] = second compound 0.316 µM, first compound 0.01 µM
[24] = second compound 1 µM, first compound 0.000316 µM
[25] = second compound 1 µM, first compound 0.001 µM
[26] = second compound 1 µM, first compound 0.00316 µM
[27] = second compound 1 µM, first compound 0.01 µM

C=CCn1c(=O)c2cnc(Nc3ccc(N4CCN(C)CC4)cc3)nc2n1-c1cccc(C(C)(C)O)n1 + CC(C)NCC(C(=O)N1CCN(c2ncnc3c2C(C)CC3O)CC1)c1ccc(Cl)cc1
6.89: pIC50 [3]
7.40: pIC50 [4]
inactive: viability, T/C [6] 103% | viability, T/C [7] 74.2% | viability, T/C (second compound 0.1 µM, first compound 0.316 µM) 49.4% | viability, T/C (second compound 0.1 µM, first compound 1 µM) 26.9% | viability, T/C (second compound 0.1 µM, first compound 3.16 µM) 20.5% | viability, T/C (second compound 0.1 µM, first compound 10 µM) 19.2% | viability, T/C [8] 74.1% | viability, T/C [9] 62.9% | viability, T/C (second compound 0.316 µM, first compound 0.316 µM) 44.3% | viability, T/C (second compound 0.316 µM, first compound 1 µM) 27.6% | viability, T/C (second compound 0.316 µM, first compound 3.16 µM) 22.8% | viability, T/C (second compound 0.316 µM, first compound 10 µM) 16.7% | viability, T/C [10] 64.9% | viability, T/C [11] 54.7% | viability, T/C (second compound 1 µM, first compound 0.316 µM) 35.7% | viability, T/C (second compound 1 µM, first compound 1 µM) 25.7% | viability, T/C (second compound 1 µM, first compound 3.16 µM) 25.8% | viability, T/C (second compound 1 µM, first compound 10 µM) 17.6% | viability, T/C [12] 51.2% | viability, T/C [13] 44.4% | viability, T/C (second compound 3.16 µM, first compound 0.316 µM) 29.1% | viability, T/C (second compound 3.16 µM, first compound 1 µM) 23.7% | viability, T/C (second compound 3.16 µM, first compound 3.16 µM) 20.5% | viability, T/C (second compound 3.16 µM, first compound 10 µM) 11.9% | viability, T/C [14] 49.2% | viability, T/C [15] 37.2% | viability, T/C (second compound 10 µM, first compound 0.316 µM) 22.6% | viability, T/C (second compound 10 µM, first compound 1 µM) 21% | viability, T/C (second compound 10 µM, first compound 3.16 µM) 16.3%
6.55: pIC50 [1]
> 7.50: pIC50 [5]
active: viability, T/C (second compound 10 µM, first compound 10 µM) 5.72%
6.66: pIC50 [2]

CC(C)n1nc(-c2ccc3oc(N)nc3c2)c2c(N)ncnc21 + CCN1CCN(Cc2ccc(Nc3ncc(F)c(-c4cc(F)c5nc(C)n(C(C)C)c5c4)n3)nc2)CC1
8.11: pIC50 (curve of first compound, second compound 0.01 µM)
8.25: pIC50 [1] | pIC50 [2]
inactive: viability, T/C (second compound 0.01 µM, first compound 0.000316 µM) 94.1% | viability, T/C (second compound 0.01 µM, first compound 0.001 µM) 88.5% | viability, T/C (second compound 0.01 µM, first compound 0.00316 µM) 69.6% | viability, T/C (second compound 0.01 µM, first compound 0.01 µM) 46.2% | viability, T/C (second compound 0.01 µM, first compound 0.0316 µM) 19.9% | viability, T/C (second compound 0.01 µM, first compound 0.1 µM) 13.2% | viability, T/C (second compound 0.0316 µM, first compound 0.000316 µM) 87.5% | viability, T/C (second compound 0.0316 µM, first compound 0.001 µM) 72.3% | viability, T/C (second compound 0.0316 µM, first compound 0.00316 µM) 63.2% | viability, T/C (second compound 0.0316 µM, first compound 0.01 µM) 39.8% | viability, T/C (second compound 0.0316 µM, first compound 0.0316 µM) 18.3% | viability, T/C (second compound 0.0316 µM, first compound 0.1 µM) 14.9% | viability, T/C [16] 78.8% | viability, T/C [17] 78.1% | viability, T/C [18] 59.1% | viability, T/C [19] 40.8% | viability, T/C [6] 18.7% | viability, T/C [7] 15.2% | viability, T/C [20] 82% | viability, T/C [21] 76.2% | viability, T/C [22] 59% | viability, T/C [23] 40.6% | viability, T/C [8] 23.1% | viability, T/C [9] 15.8% | viability, T/C [24] 93.5% | viability, T/C [25] 90.6% | viability, T/C [26] 69% | viability, T/C [27] 48.8% | viability, T/C [10] 34.9% | viability, T/C [11] 19.8%
8.00: pIC50 [3]
8.26: pIC50 (curve of first compound, second compound 0.0316 µM)

Cn1ncnc1[C@H]1c2n[nH]c(=O)c3cc(F)cc(c23)N[C@@H]1c1ccc(F)cc1 + CC(C)NCC(C(=O)N1CCN(c2ncnc3c2C(C)CC3O)CC1)c1ccc(Cl)cc1
9.26: pIC50 [4]
inactive: viability, T/C [16] 97.6% | viability, T/C [17] 95.3% | viability, T/C [18] 87.9% | viability, T/C [19] 88.2% | viability, T/C [6] 82.8% | viability, T/C [7] 82.3% | viability, T/C [20] 80.7% | viability, T/C [21] 79.5% | viability, T/C [22] 79.9% | viability, T/C [23] 71.7% | viability, T/C [8] 75.5% | viability, T/C [9] 65.9% | viability, T/C [24] 66.1% | viability, T/C [25] 61.3% | viability, T/C [26] 62.6% | viability, T/C [27] 60% | viability, T/C [10] 58.6% | viability, T/C [11] 55.1% | viability, T/C (second compound 3.16 µM, first compound 0.000316 µM) 49.7% | viability, T/C (second compound 3.16 µM, first compound 0.001 µM) 49.4% | viability, T/C (second compound 3.16 µM, first compound 0.00316 µM) 50.5% | viability, T/C (second compound 3.16 µM, first compound 0.01 µM) 48.3% | viability, T/C [12] 44.9% | viability, T/C [13] 42.3% | viability, T/C (second compound 10 µM, first compound 0.000316 µM) 46.1% | viability, T/C (second compound 10 µM, first compound 0.001 µM) 42.9% | viability, T/C (second compound 10 µM, first compound 0.00316 µM) 44.9% | viability, T/C (second compound 10 µM, first compound 0.01 µM) 40.6% | viability, T/C [14] 43.3% | viability, T/C [15] 38.6%
< 7.00: pIC50 [1] | pIC50 [2] | pIC50 [3]
> 9.50: pIC50 [5]

Cn1ncc(Cl)c1-c1cc(C(=O)NC(CN)Cc2cccc(F)c2)sc1Cl (configuration not stated)
active: viability, T/C (compound 10 µM) 0.22% and 0.31%
inactive: viability, T/C (compound 0.0316 µM) 90.4% and 98.8% | viability, T/C (compound 0.1 µM) 91% and 85.1% | viability, T/C (compound 0.316 µM) 72.4% and 75.8% | viability, T/C (compound 1 µM) 60.7% and 63.9% | viability, T/C (compound 3.16 µM) 49.9% and 56.1%
5.66 and 5.58: pIC50 (curve of compound)
